Publication PMC9067983, “Identification of highly selective type II kinase inhibitors with chiral peptidomimetic tails” (Journal of Enzyme Inhibition and Medicinal Chemistry, 2022)
Where a SMILES comes first, the peptide text is derived from it. [ ]: non-standard residue; d: D form. The star is where a group is joined. X1 = Cc1ccc(Nc2ncc3c(n2)N(C)C(=O)N(c2cc(C(=O)*)ccc2C)C3)cn1; Aib = CC(C)(N)C(=O)O

Tests used:
Experiment in all cases: kinase selectivity profiling
Type in all cases: biochemical
Settings in all cases: 10µM ATP, read-out: % inhibition (relative to DMSO)
[1] = biological target: T1, ACK1 (Homo sapiens, UniProt Q07912)
T1 construct: purchased Reaction Biology Corp
Protocol: (§1) Full panel kinase profiling and kinase IC50 measurement were performed by using Reaction Biology Corp. (San Diego, USA).

[2] = biological target: T2, ALK2/ACVR1 (Homo sapiens, UniProt Q04771)
T2 construct: purchased Reaction Biology Corp
Protocol: as §1

[3] = biological target: T3, ARK5/NUAK1 (Homo sapiens, UniProt O60285)
T3 construct: purchased Reaction Biology Corp
Protocol: as §1

[4] = biological target: T4, CDK1/cyclin B (Homo sapiens, UniProt P06493)
T4 construct: purchased Reaction Biology Corp
Protocol: as §1

[5] = biological target: T5, CDK3/cyclin E2 (Homo sapiens, UniProt Q00526)
T5 construct: purchased Reaction Biology Corp
Protocol: as §1

[6] = biological target: T6, CDK5/P25 (Homo sapiens, UniProt Q00535)
T6 construct: purchased Reaction Biology Corp
Protocol: as §1

[7] = biological target: T7, CDK9/cyclin K (Homo sapiens, UniProt P50750)
T7 construct: purchased Reaction Biology Corp
Protocol: as §1

[8] = biological target: T8, CHK1 (Homo sapiens, UniProt O14757)
T8 construct: purchased Reaction Biology Corp
Protocol: as §1

[9] = biological target: T9, CK1g2 (Homo sapiens, UniProt P78368)
T9 construct: purchased Reaction Biology Corp
Protocol: as §1

[10] = biological target: T10, DDR2 (Homo sapiens, UniProt Q16832)
T10 construct: purchased Reaction Biology Corp
Protocol: as §1

[11] = biological target: T11, EPHA4 (Homo sapiens, UniProt P54764)
T11 construct: purchased Reaction Biology Corp
T11 sequence (P54764 20-986): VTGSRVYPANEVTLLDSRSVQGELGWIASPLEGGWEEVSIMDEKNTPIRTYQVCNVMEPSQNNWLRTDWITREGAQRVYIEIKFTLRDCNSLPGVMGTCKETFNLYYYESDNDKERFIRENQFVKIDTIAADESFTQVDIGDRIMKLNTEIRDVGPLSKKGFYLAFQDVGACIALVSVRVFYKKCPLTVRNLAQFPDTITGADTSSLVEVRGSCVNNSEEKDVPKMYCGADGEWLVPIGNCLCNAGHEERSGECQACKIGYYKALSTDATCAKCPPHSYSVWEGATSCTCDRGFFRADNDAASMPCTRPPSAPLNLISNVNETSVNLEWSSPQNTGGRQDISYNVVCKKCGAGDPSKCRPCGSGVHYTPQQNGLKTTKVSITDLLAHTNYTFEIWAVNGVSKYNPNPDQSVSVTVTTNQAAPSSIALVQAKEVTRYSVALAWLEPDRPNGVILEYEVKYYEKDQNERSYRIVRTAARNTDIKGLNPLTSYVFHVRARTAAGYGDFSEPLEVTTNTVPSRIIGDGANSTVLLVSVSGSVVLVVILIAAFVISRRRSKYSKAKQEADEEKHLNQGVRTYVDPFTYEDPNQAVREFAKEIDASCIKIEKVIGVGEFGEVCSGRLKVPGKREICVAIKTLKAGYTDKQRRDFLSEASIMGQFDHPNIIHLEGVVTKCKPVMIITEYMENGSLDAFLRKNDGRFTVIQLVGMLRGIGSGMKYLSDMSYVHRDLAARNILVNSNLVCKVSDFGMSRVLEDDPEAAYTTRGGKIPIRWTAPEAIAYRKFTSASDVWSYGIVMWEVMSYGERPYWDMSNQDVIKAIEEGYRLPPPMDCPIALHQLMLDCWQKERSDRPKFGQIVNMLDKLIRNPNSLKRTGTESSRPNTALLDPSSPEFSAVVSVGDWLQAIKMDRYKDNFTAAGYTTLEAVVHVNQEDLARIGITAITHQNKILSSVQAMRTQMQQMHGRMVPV
Protocol: as §1

[12] = biological target: T12, EPHB1 (Homo sapiens, UniProt P54762)
T12 construct: purchased Reaction Biology Corp
Protocol: as §1

[13] = biological target: T13, FAK/PTK2 (Homo sapiens, UniProt Q05397)
T13 construct: purchased Reaction Biology Corp
T13 sequence (Q05397 whole entry): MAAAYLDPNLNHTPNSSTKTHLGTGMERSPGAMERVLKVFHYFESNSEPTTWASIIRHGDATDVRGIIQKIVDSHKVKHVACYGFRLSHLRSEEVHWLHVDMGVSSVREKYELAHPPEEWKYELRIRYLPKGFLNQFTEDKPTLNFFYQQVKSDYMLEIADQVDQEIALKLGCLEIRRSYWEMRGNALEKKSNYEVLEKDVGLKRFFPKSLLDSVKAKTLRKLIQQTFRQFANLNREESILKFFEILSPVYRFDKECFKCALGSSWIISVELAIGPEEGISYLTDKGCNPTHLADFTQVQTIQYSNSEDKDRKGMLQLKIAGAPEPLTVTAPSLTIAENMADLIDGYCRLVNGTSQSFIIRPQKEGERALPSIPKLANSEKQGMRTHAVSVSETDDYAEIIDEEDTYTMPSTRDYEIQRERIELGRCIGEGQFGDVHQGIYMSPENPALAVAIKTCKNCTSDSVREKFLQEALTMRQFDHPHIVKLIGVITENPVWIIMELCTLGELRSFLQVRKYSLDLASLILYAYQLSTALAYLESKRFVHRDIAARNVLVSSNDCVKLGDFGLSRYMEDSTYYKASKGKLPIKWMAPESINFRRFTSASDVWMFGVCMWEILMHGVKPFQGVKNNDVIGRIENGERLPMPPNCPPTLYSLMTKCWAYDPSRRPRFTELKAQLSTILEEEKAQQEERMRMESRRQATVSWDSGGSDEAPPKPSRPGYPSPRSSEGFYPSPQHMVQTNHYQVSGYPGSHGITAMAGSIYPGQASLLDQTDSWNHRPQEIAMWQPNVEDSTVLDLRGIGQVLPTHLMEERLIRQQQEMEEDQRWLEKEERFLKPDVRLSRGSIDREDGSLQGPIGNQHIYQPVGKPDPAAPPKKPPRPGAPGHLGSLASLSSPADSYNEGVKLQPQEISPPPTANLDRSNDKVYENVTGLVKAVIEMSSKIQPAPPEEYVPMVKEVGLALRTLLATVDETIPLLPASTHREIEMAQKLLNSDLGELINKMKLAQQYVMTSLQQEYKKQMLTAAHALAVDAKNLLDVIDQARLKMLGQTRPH
Protocol: as §1

[14] = biological target: T14, FLT4/VEGFR3 (Homo sapiens, UniProt P35916)
T14 construct: purchased Reaction Biology Corp
Protocol: as §1

[15] = biological target: T15, FYN (Homo sapiens, UniProt P06241)
T15 construct: purchased Reaction Biology Corp
Protocol: as §1

[16] = biological target: T16, GRK1 (Homo sapiens, UniProt Q15835)
T16 construct: purchased Reaction Biology Corp
Protocol: as §1

[17] = biological target: T17, IKKe/IKBKE (Homo sapiens, UniProt Q14164)
T17 construct: purchased Reaction Biology Corp
Protocol: as §1

[18] = biological target: T18, LOK/STK10 (Homo sapiens, UniProt O94804)
T18 construct: purchased Reaction Biology Corp
Protocol: as §1

[19] = biological target: T19, MAPKAPK5/PRAK (Homo sapiens, UniProt Q8IW41)
T19 construct: purchased Reaction Biology Corp
Protocol: as §1

[20] = biological target: T20, MASTL (Homo sapiens, UniProt Q96GX5)
T20 construct: purchased Reaction Biology Corp
Protocol: as §1

[21] = biological target: T21, MEK5 (Homo sapiens, UniProt Q13163)
T21 construct: purchased Reaction Biology Corp
Protocol: as §1

[22] = biological target: T22, MKK6 (Homo sapiens, UniProt P52564)
T22 construct: purchased Reaction Biology Corp
T22 sequence (P52564 whole entry): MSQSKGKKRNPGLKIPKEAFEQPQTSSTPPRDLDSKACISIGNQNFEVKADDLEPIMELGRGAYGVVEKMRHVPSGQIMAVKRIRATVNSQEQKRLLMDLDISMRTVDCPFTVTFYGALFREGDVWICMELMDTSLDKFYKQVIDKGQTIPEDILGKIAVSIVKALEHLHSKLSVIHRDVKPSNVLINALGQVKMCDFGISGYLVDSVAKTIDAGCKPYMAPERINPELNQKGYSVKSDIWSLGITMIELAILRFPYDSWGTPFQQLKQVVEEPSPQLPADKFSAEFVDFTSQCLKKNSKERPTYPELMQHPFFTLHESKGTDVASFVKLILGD
Protocol: as §1

[23] = biological target: T23, MNK2 (Homo sapiens, UniProt Q9HBH9)
T23 construct: purchased Reaction Biology Corp
Protocol: as §1

[24] = biological target: T24, MSK2/RPS6KA4 (Homo sapiens, UniProt O75676)
T24 construct: purchased Reaction Biology Corp
Protocol: as §1

[25] = biological target: T25, NEK5 (Homo sapiens, UniProt Q6P3R8)
T25 construct: purchased Reaction Biology Corp
Protocol: as §1

[26] = biological target: T26, NEK7 (Homo sapiens, UniProt Q8TDX7)
T26 construct: purchased Reaction Biology Corp
Protocol: as §1

[27] = biological target: T27, NLK (Homo sapiens, UniProt Q9UBE8)
T27 construct: purchased Reaction Biology Corp
Protocol: as §1

[28] = biological target: T28, OSR1/OXSR1 (Homo sapiens, UniProt O95747)
T28 construct: purchased Reaction Biology Corp
Protocol: as §1

[29] = biological target: T29, PIM2 (Homo sapiens, UniProt Q9P1W9)
T29 construct: purchased Reaction Biology Corp
T29 sequence (Q9P1W9 whole entry): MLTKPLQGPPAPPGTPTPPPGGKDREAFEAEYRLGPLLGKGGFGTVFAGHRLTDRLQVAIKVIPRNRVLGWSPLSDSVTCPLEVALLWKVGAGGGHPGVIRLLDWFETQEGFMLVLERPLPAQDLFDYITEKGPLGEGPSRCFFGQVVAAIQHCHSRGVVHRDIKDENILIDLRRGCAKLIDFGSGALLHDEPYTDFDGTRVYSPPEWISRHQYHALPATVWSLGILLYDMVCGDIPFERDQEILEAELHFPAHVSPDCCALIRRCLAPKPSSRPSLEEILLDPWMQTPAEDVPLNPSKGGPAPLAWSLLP
Protocol: as §1

[30] = biological target: T30, PKCiota (Homo sapiens, UniProt P41743)
T30 construct: purchased Reaction Biology Corp
Protocol: as §1

[31] = biological target: T31, PKCzeta (Homo sapiens, UniProt Q05513)
T31 construct: purchased Reaction Biology Corp
Protocol: as §1

[32] = biological target: T32, RET (Homo sapiens, UniProt P07949)
T32 construct: purchased Reaction Biology Corp
Protocol: as §1

[33] = biological target: T33, ROS/ROS1 (Homo sapiens, UniProt P08922)
T33 construct: purchased Reaction Biology Corp
Protocol: as §1

[34] = biological target: T34, SIK3 (Homo sapiens, UniProt Q9Y2K2)
T34 construct: purchased Reaction Biology Corp
Protocol: as §1

[35] = biological target: T35, SNRK (Homo sapiens, UniProt Q9NRH2)
T35 construct: purchased Reaction Biology Corp
T35 sequence (Q9NRH2 whole entry): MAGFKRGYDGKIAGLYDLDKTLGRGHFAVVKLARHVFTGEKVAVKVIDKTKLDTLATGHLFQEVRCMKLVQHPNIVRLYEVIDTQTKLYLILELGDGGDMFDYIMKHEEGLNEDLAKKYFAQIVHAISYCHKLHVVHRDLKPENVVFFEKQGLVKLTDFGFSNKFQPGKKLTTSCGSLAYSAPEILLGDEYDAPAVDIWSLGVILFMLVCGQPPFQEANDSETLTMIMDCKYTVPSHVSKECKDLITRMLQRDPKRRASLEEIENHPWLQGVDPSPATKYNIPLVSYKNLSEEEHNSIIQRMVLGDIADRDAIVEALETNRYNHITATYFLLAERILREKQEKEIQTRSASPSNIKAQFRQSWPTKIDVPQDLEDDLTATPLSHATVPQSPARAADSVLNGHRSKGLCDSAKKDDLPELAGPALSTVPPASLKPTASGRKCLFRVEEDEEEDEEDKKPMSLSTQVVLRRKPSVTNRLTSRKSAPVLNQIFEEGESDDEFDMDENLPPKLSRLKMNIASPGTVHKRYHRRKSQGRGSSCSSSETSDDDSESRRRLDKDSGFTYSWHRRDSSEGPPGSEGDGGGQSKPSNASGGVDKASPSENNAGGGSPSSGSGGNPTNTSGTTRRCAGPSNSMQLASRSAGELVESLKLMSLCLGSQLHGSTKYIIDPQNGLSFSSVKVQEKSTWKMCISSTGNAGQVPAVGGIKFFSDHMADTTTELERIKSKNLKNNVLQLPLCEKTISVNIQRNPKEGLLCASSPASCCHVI
Protocol: as §1

[36] = biological target: T36, SRPK1 (Homo sapiens, UniProt Q96SB4)
T36 construct: purchased Reaction Biology Corp
Protocol: as §1

[37] = biological target: T37, STK22D/TSSK1 (Homo sapiens, UniProt Q9BXA7)
T37 construct: purchased Reaction Biology Corp
Protocol: as §1

[38] = biological target: T38, TAOK1 (Homo sapiens, UniProt Q7L7X3)
T38 construct: purchased Reaction Biology Corp
T38 sequence (Q7L7X3 whole entry): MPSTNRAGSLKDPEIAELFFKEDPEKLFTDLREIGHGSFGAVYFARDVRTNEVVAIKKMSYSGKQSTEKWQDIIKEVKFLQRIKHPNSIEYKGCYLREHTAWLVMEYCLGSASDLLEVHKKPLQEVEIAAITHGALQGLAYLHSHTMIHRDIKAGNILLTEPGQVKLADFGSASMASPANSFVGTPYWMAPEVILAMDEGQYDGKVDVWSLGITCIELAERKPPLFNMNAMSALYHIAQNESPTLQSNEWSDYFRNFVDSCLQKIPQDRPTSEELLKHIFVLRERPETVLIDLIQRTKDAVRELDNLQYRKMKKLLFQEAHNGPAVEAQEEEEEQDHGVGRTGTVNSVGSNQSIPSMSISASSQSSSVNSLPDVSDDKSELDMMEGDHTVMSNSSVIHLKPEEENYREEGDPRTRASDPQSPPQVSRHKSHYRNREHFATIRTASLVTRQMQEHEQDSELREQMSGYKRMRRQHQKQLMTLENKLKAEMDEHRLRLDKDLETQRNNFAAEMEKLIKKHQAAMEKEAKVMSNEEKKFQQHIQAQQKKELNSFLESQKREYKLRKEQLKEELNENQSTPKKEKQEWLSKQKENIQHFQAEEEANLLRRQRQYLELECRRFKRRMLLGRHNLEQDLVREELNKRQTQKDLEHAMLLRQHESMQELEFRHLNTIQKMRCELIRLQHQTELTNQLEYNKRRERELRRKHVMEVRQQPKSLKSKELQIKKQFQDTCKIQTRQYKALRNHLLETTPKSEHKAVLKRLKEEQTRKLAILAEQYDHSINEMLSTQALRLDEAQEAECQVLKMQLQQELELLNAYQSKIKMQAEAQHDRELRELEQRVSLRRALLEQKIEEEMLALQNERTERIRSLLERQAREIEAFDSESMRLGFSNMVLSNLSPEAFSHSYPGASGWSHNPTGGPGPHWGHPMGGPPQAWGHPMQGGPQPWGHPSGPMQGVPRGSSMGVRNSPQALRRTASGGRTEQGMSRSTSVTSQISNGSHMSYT
Protocol: as §1

[39] = biological target: T39, TNIK (Homo sapiens, UniProt Q9UKE5)
T39 construct: purchased Reaction Biology Corp
Protocol: as §1

[40] = biological target: T40, TRKC (Homo sapiens, UniProt Q16288)
T40 construct: purchased Reaction Biology Corp
Protocol: as §1

[41] = biological target: T41, ULK1 (Homo sapiens, UniProt O75385)
T41 construct: purchased Reaction Biology Corp
Protocol: as §1

[42] = biological target: T42, WNK2 (Homo sapiens, UniProt Q9Y3S1)
T42 construct: purchased Reaction Biology Corp
Protocol: as §1

[43] = biological target: T43, p70S6K/RPS6KB1 (Homo sapiens, UniProt P23443)
T43 construct: purchased Reaction Biology Corp
T43 sequence (P23443 whole entry): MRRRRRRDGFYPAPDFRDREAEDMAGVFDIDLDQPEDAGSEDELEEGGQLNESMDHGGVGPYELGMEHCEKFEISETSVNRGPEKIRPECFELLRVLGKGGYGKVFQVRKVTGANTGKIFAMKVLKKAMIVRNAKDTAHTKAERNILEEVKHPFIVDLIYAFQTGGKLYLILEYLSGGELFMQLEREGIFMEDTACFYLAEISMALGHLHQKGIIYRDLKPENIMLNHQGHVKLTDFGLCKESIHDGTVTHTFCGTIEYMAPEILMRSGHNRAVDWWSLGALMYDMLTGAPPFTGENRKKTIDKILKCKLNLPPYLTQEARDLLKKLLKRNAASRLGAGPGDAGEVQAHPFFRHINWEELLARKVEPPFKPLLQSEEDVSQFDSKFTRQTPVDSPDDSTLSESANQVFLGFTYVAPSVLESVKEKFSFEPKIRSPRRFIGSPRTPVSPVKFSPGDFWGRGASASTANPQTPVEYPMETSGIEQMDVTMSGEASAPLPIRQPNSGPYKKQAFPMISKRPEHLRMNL
Protocol: as §1

## Cc1ccc(Nc2ncc3c(n2)N(C)C(=O)N(c2cc(C(=O)N[C@H](C(=O)N4CCC[C@H]4C(=O)NC(C)(C)C(=O)N[C@@H](CC(C)C)C(=O)N(C)C)C(C)C)ccc2C)C3)cn1 [7a, (S)-N-(1-(((S)-1-(dimethylamino)-4-methyl-1-oxopentan-2-yl)amino)-2-methyl-1-oxopropan-2-yl)-1-((4-methyl-3-(1-methyl-7-((6-methylpyridin-3-yl)amino)-2-oxo-1,4-dihydropyrimido[4,5-d]pyrimidin-3(2H)-yl)benzoyl)-L-valyl)pyrrolidine-2-carboxamide] (X1-VP[Aib]L-NMe2)
[1]
  inhibition at 1 µM: 0%
[2]
  inhibition at 1 µM: 2%
[3]
  inhibition at 1 µM: 9%
[4]
  inhibition at 1 µM: 7%
[5]
  inhibition at 1 µM: 0%
[6]
  inhibition at 1 µM: 0%
[7]
  inhibition at 1 µM: 0%
[8]
  inhibition at 1 µM: 0%
[9]
  inhibition at 1 µM: 2%
[10]
  inhibition at 1 µM: 58%
[11]
  inhibition at 1 µM: 29%
[12]
  inhibition at 1 µM: 16%
[13]
  inhibition at 1 µM: 5%
[14]
  inhibition at 1 µM: 20%
[15]
  inhibition at 1 µM: 21%
[16]
  inhibition at 1 µM: 0%
[17]
  inhibition at 1 µM: 3%
[18]
  inhibition at 1 µM: 3%
[19]
  inhibition at 1 µM: 8%
[20]
  inhibition at 1 µM: 7%
[21]
  inhibition at 1 µM: 50%
[22]
  inhibition at 1 µM: 8%
[23]
  inhibition at 1 µM: 1%
[24]
  inhibition at 1 µM: 9%
[25]
  inhibition at 1 µM: 0%
[26]
  inhibition at 1 µM: 2%
[27]
  inhibition at 1 µM: 3%
[28]
  inhibition at 1 µM: 6%
[29]
  inhibition at 1 µM: 0%
[30]
  inhibition at 1 µM: 3%
[31]
  inhibition at 1 µM: 0%
[32]
  inhibition at 1 µM: 9%
[33]
  inhibition at 1 µM: 9%
[34]
  inhibition at 1 µM: 12%
[35]
  inhibition at 1 µM: 9%
[36]
  inhibition at 1 µM: 5%
[37]
  inhibition at 1 µM: 6%
[38]
  inhibition at 1 µM: 0%
[39]
  inhibition at 1 µM: 6%
[40]
  inhibition at 1 µM: 21%
[41]
  inhibition at 1 µM: 0%
[42]
  inhibition at 1 µM: 7%
[43]
  inhibition at 1 µM: 0%
